Assay results published in patent US12303509B2, “Compounds for the treatment of BRAF-associated diseases and disorders” (Pfizer Inc., priority 2020, dated 2025).
Structures can show the parent of a compound that is named as a salt. Where two headings read alike, the source gives them in different places.

Experiments:
[1] = MDR1 LLC-PK1 and BCRP MDCKII permeability assay: permeability coefficient (Papp); format: in vitro ADME
Description: (§1) Final organic concentration in the assay was 1%.

P-gp (MDR1) = P-gp (MDR1) (Homo sapiens (Human), UniProt P08183); assay: MDR1 LLC-PK1 permeability assay: efflux ratio; format: in vitro ADME; conditions: pig
P-gp (MDR1), sequence (P08183 whole entry, species assumed): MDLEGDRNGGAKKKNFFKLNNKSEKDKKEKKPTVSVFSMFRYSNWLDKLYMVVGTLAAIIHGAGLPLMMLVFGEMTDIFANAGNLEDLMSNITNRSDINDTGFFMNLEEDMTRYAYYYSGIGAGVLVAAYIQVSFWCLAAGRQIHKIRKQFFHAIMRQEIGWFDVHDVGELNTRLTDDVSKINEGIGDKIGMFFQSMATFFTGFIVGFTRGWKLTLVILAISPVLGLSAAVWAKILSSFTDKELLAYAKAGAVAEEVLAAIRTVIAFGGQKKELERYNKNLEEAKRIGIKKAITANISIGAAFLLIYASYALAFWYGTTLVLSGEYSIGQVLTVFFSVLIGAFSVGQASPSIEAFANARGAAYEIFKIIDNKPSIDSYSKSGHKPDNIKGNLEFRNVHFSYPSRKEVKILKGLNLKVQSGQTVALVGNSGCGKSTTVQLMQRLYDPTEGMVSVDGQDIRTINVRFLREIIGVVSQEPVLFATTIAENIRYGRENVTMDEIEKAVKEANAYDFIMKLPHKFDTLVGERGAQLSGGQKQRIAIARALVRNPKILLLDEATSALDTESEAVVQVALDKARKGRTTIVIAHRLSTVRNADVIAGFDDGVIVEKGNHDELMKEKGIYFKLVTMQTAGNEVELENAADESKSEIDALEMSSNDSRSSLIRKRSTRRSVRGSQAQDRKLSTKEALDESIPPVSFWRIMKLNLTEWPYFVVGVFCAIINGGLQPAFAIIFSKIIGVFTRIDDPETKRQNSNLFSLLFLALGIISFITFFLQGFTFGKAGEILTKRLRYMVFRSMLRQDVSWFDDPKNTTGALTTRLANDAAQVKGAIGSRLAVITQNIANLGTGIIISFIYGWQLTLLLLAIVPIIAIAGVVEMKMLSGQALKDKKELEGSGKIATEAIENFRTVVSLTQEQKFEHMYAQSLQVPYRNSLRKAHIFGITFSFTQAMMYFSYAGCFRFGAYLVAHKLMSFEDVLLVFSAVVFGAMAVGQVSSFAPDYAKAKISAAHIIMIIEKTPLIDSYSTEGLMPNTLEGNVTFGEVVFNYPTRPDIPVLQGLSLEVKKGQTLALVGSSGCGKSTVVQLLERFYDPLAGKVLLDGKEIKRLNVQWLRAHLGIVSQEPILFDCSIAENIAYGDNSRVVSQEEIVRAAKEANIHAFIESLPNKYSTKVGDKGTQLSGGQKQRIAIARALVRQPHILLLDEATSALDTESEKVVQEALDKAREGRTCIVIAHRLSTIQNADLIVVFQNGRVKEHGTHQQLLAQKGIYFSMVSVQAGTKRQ
Description: as §1

A375 cells = assay: Cellular phospho-ERK inhibition assay in A375 cells; format: cell-based; conditions: Homo sapiens, A-375, A375 cells (head prints A357), 2 hours treatment, read-out: A357 cell IC50
Summary of the method: (§2)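 In Cell Western detection of phospho-ERK1/2 (Thr202/Tyr204) over GAPDH after 2 h compound exposure (66 pM to 10 μM, 9 points, 0.25% DMSO) of A375 cells in DMEM or H1755 cells in RPMI, both with 10% FBS. Percent of control set by DMSO and 10 μM binimetinib; 4-parameter IC50.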

H1755 cells = assay: Cellular phospho-ERK inhibition assay in H1755 cells; format: cell-based; conditions: Homo sapiens, NCI-H1755, 2 hours treatment, read-out: H1755 Cell IC50
Summary of the method: as §2

[2] = molecular target: full-length FLAG-tagged B-Raf(V600E) (Homo sapiens (Human), UniProt P15056, V600E); assay: BRAF V600E enzyme assay (TR-FRET competitive displacement); format: binding
full-length FLAG-tagged B-Raf(V600E), sequence (P15056 whole entry V600E): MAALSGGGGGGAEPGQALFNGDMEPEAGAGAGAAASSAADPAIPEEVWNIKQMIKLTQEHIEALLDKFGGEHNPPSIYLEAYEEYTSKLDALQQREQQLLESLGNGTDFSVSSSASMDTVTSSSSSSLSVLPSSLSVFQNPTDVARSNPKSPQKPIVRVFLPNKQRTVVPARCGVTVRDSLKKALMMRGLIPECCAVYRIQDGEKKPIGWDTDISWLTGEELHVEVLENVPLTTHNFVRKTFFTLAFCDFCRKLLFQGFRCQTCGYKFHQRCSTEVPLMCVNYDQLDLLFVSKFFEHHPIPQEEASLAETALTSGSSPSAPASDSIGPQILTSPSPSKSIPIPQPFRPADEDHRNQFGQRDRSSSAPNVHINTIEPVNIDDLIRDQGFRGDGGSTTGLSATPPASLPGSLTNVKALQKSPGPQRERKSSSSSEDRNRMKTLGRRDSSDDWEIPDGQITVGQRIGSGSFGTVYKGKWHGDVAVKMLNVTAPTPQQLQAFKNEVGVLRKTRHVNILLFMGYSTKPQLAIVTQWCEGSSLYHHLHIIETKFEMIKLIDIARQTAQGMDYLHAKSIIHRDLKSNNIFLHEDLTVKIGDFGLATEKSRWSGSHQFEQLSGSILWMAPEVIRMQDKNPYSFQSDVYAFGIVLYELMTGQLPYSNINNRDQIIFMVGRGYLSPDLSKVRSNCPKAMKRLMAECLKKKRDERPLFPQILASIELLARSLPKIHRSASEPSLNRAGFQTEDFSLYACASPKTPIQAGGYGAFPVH
Summary of the method: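 TR-FRET tracer competition: compound (top dose 10 μM, 3-fold, 11 points) incubated 60 min at ambient temperature with FLAG-tagged full-length B-Raf(V600E) (5 nM), Eu anti-FLAG cryptate (0.5 nM) and tracer (50 nM), pH 7.4 HEPES/MgCl2 buffer. 665/615 ratio converted to percent of control; IC50 where fitted curve crosses 50 POC.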

BCRP = BCRP (Homo sapiens (Human), UniProt Q9UNQ0); assay: BCRP MDCKII permeability assay: efflux ratio; format: in vitro ADME; conditions: dog
BCRP, sequence (Q9UNQ0 whole entry): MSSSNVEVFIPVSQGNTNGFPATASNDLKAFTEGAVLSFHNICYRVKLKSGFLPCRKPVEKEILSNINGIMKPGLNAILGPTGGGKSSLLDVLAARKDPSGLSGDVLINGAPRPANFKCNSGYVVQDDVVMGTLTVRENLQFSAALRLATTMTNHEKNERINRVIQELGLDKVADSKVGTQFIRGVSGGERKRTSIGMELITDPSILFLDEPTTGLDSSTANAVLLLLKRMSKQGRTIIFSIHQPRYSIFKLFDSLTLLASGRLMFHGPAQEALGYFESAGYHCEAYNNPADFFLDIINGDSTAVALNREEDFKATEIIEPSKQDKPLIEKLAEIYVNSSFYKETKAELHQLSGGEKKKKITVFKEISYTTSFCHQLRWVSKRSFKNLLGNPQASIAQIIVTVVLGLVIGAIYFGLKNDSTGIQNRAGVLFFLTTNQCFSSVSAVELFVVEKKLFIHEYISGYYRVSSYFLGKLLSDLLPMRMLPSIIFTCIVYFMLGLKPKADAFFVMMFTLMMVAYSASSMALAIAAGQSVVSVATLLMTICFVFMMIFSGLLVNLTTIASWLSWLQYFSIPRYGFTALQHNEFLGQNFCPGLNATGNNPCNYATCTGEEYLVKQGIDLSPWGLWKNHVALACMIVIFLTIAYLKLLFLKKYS

[3] = averaged IC50, TR-FRET tracer displacement, 60 min

SMILES	Papp at 2 h, 1 µM [1] [×10⁻⁶ cm/s]	efflux ratio at 2 h, 1 µM (P-gp (MDR1))	IC50 (A375 cells) [nM]	IC50 (H1755 cells) [nM]	IC50 [2, 3] [nM]	efflux ratio at 2 h, 1 µM (BCRP)	IC50 [2] [nM]
Cn1cnc2ccc(Oc3c(F)ccc(NS(=O)(=O)N4C[C@@H](F)[C@@H](F)C4)c3Cl)c(Cl)c2c1=O [Example 59, cis-N-(2-chloro-3-((5-chloro-3-methyl-4-oxo-3,4-dihydroquinazolin-6-yl)oxy)-4-fluorophenyl)-3,4-difluoropyrrolidine-1-sulfonamide]	31	4.9	10	60		12.9	1
Cn1cnc2ccc(Oc3c(F)ccc(NS(=O)(=O)N4CCC(F)(F)C4)c3Cl)c(Cl)c2c1=O [Example 61, N-(2-chloro-3-((5-chloro-3-methyl-4-oxo-3,4-dihydroquinazolin-6-yl)oxy)-4-fluorophenyl)-3,3-difluoropyrrolidine-1-sulfonamide]	29	2.2	25	194		3.3	2
CC[C@@H]1CCN(S(=O)(=O)Nc2ccc(F)c(Nc3ccc4ncn(C)c(=O)c4c3F)c2Cl)C1 [Example 62, (R)-N-(2-chloro-4-fluoro-3-((5-fluoro-3-methyl-4-oxo-3,4-dihydroquinazolin-6-yl)amino)phenyl)-3-ethylpyrrolidine-1-sulfonamide trifluoroacetate]	29	1.6	31	185	13	1	
Cn1cnc2ccc(Oc3c(F)ccc(NS(=O)(=O)N4CC[C@@H](OC(F)F)C4)c3Cl)c(F)c2c1=O [Example 66, (R)-N-(2-chloro-4-fluoro-3-((5-fluoro-3-methyl-4-oxo-3,4-dihydroquinazolin-6-yl)oxy)phenyl) 3-(difluoromethoxy)pyrrolidine-1-sulfonamide]	25	2.2	6	44		3.1	4

Continued, values first:

Papp at 2 h, 1 µM [1] [×10⁻⁶ cm/s]	efflux ratio at 2 h, 1 µM (P-gp (MDR1))	IC50 (A375 cells) [nM]	IC50 (H1755 cells) [nM]	IC50 [2, 3] [nM]	efflux ratio at 2 h, 1 µM (BCRP)	IC50 [2] [nM]	SMILES
27	5.3	6	32	3	7.3		Cn1cnc2ccc(Nc3cc(Cl)cc(NS(=O)(=O)N4CC[C@@H](F)C4)c3F)c(F)c2c1=O [Example 58, (R)-N-(5-chloro-2-fluoro-3-((5-fluoro-3-methyl-4-oxo-3,4-dihydroquinazolin-6-yl)amino)phenyl)-3-fluoropyrrolidine-1-sulfonamide trifluoroacetate]
18	3.1	7	61		1.6	2	Cn1cnc2ccc(Oc3c(F)ccc(NS(=O)(=O)N4CC[C@@H](OC(F)F)C4)c3Cl)c(Cl)c2c1=O [Example 60, (R)-N-(2-chloro-3-((5-chloro-3-methyl-4-oxo-3,4-dihydroquinazolin-6-yl)oxy)-4-fluorophenyl)-3-(difluoromethoxy)pyrrolidine-1-sulfonamide]
39	1.7	7	84		3.6	1	Cn1cnc2ccc(Oc3c(F)ccc(NS(=O)(=O)N4CCC(F)(F)C4)c3Cl)c(F)c2c1=O [Example 63, N-(2-chloro-4-fluoro-3-((5-fluoro-3-methyl-4-oxo-3,4-dihydroquinazolin-6-yl)oxy)phenyl)-3,3-difluoropyrrolidine-1-sulfonamide]
28	1.3	13	127		1	2	Cn1cnc2ccc(Oc3c(F)ccc(NS(=O)(=O)N4CC5CC5C4)c3Cl)c(F)c2c1=O (stereo not drawn) [Example 65, N-(2-chloro-4-fluoro-3-((5-fluoro-3-methyl-4-oxo-3,4-dihydroquinazolin-6-yl)oxy)phenyl)-3-azabicyclo[3.1.0]hexane-3-sulfonamide]
